The nature of data set [1]: Lipophilicity coefficient RM0 by reversed phase thin layer chromatography. The data set is classed as physicochemical. The settings on record: RP-18 TLC, methanol/phosphate buffer pH=7.4. Put shortly: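 RP-18 F254 TLC plates developed at room temperature in methanol/100 mM phosphate buffer pH 7.4, methanol 95–65% (v/v), spots seen under UV 254 nm, in duplicate. RM = log(1/Rf − 1) regressed linearly against methanol content to give RM0.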

For data set [2], the target named is T1, tyrosinase from mushroom (Agaricus bisporus, UniProt C7FF04). Kind of data set: Inhibition of commercial mushroom tyrosinase, substrate L-DOPA. It counts as biochemical. The conditions noted are these: read-out: Tyrosinase inhibition with L-DOPA [%]. Summed up:
(§1)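 Compounds at final 500, 250 or 125 μM with tyrosinase (1 or 3 U/well) in 50 mM phosphate buffer pH 6.8; reaction started with L-tyrosine (monophenolase) or L-DOPA (diphenolase). After 25 min, absorbance at 475 nm; % inhibition versus DMSO control.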

For data set [3], the target named is T1, tyrosinase from mushroom. As to the kind of experiment: Inhibition of commercial mushroom tyrosinase, substrate L-tyrosine. It counts as biochemical. The settings on record: read-out: Tyrosinase inhibition with L-tyrosine [%]. Put shortly:
as §1

Data set [4] has as its system B16-F10 murine melanoma cell line. Kind of data set: Cytotoxicity (MTT) in B16-F10 murine melanoma cells. It counts as cell-based. The conditions noted are these: 48 h. Put shortly:
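B16-F10 cells seeded 5000/well in F10-Ham with 1% FBS, grown 24 h, then exposed to compound at various concentrations for 48 h. MTT formazan dissolved in DMSO, absorbance at 570 nm; viability as % of DMSO control (AT/AC×100).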

In data set [5] the test system is primary melanocytes. Kind of data set: Safety, LDH test in primary melanocytes. The data set is classed as cell-based. The conditions noted are these: 48 hours, vs Triton X-100. As to the method:
In order to test the safety of the compounds, both normal human cells were used: keratinocytes (HaCaT), fibroblasts (BJ), primary melanocytes that occur in the skin, as well as human cancer cells: the hepatocarcinoma line HepG2 and the neuroblastoma line SH-SY5Y, which are considered a model for the assessment of hepatocytotoxicity and neurocytotoxicity. The concentrations of the tested compounds in the range of […] were used in the studies. The cell lines used in the research were purchased from the American Type Culture Collection (ATCC) and were cultured in media recommended by the manufacturer with the addition of FBS and antibiotics in an incubator ensuring appropriate culture conditions, i.e. humidity, temperature and CO2 concentration. Cells were seeded into multiwell plates and incubated with the test compounds for 48 hours. After this time, MTT and LDH tests were performed to assess cell viability. The MTT test is based on the ability to transform the substrate: [3-(4,5-dimethyl-2-thiazolyl)-2,5-diphenyl-2H-tetrazolium bromide into a colored product only by living cells. The absorbance at 570 nm, which corresponds to the absorption maximum for the product, is directly proportional to cell viability. The LDH test is based on testing the activity of the enzyme lactate dehydrogenase in the culture medium, which is released from cells as a result of damage to the cell membrane, e.g. as a result of cell death. Triton X-100 was used as a positive control in the test. The determination is colorimetric, the substrate is transformed by the released enzyme into a colored product, an increase in absorbance indicates a larger amount of the released enzyme, and thus confirms greater damage to cell membranes. Tables 7 and 8 present the results obtained, which correspond to the viability of cells incubated with the compounds in relation to the viability of cells constituting a control sample, i.e. incubated with the solvent (DMSO) at the same concentration as in the case of the groups tested in the MTT test or in relation to the results obtained for the Triton X-100 positive control in the LDH test. They indicate that the compounds are safe at the concentrations tested.

Usually inhibition stands for the drop in the measured response relative to a control, in per cent.

T1 sequence (C7FF04 2-392): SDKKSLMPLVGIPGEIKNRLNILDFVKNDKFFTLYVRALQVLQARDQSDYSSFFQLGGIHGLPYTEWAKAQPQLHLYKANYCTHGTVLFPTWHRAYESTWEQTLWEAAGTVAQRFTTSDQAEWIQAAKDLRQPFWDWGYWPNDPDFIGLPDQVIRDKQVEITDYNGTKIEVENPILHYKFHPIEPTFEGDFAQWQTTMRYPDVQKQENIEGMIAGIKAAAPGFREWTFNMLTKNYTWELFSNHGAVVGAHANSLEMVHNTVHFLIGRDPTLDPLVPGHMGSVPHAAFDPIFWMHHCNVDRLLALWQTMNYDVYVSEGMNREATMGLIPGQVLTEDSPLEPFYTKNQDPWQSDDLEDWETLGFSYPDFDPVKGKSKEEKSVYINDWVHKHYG
T1 sequence (G1K3P4 entry or part of it, further chain): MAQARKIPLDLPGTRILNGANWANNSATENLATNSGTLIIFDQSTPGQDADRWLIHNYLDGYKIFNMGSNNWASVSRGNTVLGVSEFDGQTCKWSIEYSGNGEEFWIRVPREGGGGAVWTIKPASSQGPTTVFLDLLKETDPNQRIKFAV

In the case of `O=C(/C=C/c1ccc(Cl)cc1)NCCCCCO` [Compound A-111, (2E)-3-(4-chlorophenyl)-N-(5-hydroxypentyl)prop-2-enamide], the RM0 in data set [1] is on record as 2.79. Also, the inhibition at 250 µM in data set [2] is 59.9 ± 1.56%. The inhibition at 500 µM in data set [3] is 89 ± 0.98%. Moreover, the entries for the “Cytotoxicity study in B16F10 cells, % viability” value (“Cytotoxicity study … % viability” below) in data set [4] (150 μM), in data set [4] (200 μM) and in data set [4] (250 μM) were 88.2%, 95.6% and 89.7%, respectively. Further, the “LDH, Primary melanocytes” value in data set [5] (100 μM) is on record as 3.31 percentage of positive control; in data set [5] (150 μM), 4.95 percentage of positive control; in data set [5] (200 μM) it was 13.38 percentage of positive control; in data set [5] (250 μM) it was 18.41 percentage of positive control.

On to `O=C(/C=C/c1ccccc1)NCCCCCO` [Compound A-133, (2E)-N-(5-hydroxypentyl)-3-phenylprop-2-enamide], for which the RM0 in data set [1] is on record as 2.15. For the same compound, the inhibition at 500 µM in data set [2] amounted to 48 ± 1.83%; in data set [3], 58.6 ± 4.58%. Besides, the “Cytotoxicity study … % viability” value in data set [4] (150 μM) is recorded as 101.7%; in data set [4] (200 μM) it was 94.9%; in data set [4] (250 μM), 95.6%. The “LDH, Primary melanocytes” value in data set [5] (100 μM) is listed as 4.68 percentage of positive control; in data set [5] (150 μM) it was 7.59 percentage of positive control; in data set [5] (200 μM) it was 16.71 percentage of positive control; in data set [5] (250 μM), 19.45 percentage of positive control.

In turn, `O=C(/C=C/c1ccc(Cl)cc1)NCCCO` [H-330/21, (2E)-3-(4-chlorophenyl)-N-(3-hydroxypropyl)prop-2-enamide] came in with an RM0 in data set [1] of 1.94. The figures for the inhibition at 500 µM in data set [2] (500 μM) and in data set [3] (500 μM) were 55.3 ± 1.39% and 82.49 ± 0.65%, respectively. The entries for the “Cytotoxicity study … % viability” value in data set [4] (150 μM), in data set [4] (200 μM) and in data set [4] (250 μM) were 78.6%, 82.9% and 83.9%, respectively. Moreover, the “LDH, Primary melanocytes” value in data set [5] (100 μM) was 5.63 percentage of positive control; in data set [5] (150 μM), 13.09 percentage of positive control; in data set [5] (200 μM), 10.91 percentage of positive control; in data set [5] (250 μM), 18.10 percentage of positive control.

The compound `Cc1ccc(/C=C/C(=O)NCCCCCO)cc1` [H-415/21, (2E)-N-(5-hydroxypentyl)-3-(4-methylphenyl)prop-2-enamide] displayed an RM0 in data set [1] of 2.49. For the same compound, the inhibition at 500 µM came to 30.4 ± 0.88% in data set [2] and 25 ± 5.67% in data set [3]. The “Cytotoxicity study … % viability” value was 85.2% in data set [4] (150 μM), 90.3% in data set [4] (200 μM) and 75.7% in data set [4] (250 μM). The “LDH, Primary melanocytes” value in data set [5] (100 μM) is listed as 4.22 percentage of positive control; in data set [5] (150 μM), 6.01 percentage of positive control; in data set [5] (200 μM) it was 8.34 percentage of positive control; in data set [5] (250 μM) it was 14.94 percentage of positive control.

Take `O=C(/C=C/c1ccccc1)NCCCCCCO` [H-425/21, (E)-N-(6-hydroxyhexyl)cinnamic acid amide]: the RM0 in data set [1] is recorded as 2.40. Also, the inhibition at 500 µM stood at 34.6 ± 2.46% in data set [2] (500 μM) and 44.6 ± 5.99% in data set [3] (500 μM). The “Cytotoxicity study … % viability” value was determined as 109.2% in data set [4] (150 μM), 98.4% in data set [4] (200 μM) and 86.9% in data set [4] (250 μM).

For `O=C(/C=C/c1ccc(Cl)cc1)NCCO` [H-427/21, (2E)-3-(4-chlorophenyl)-N-(2-hydroxyethyl)prop-2-enamide], in data set [1], the RM0 stood at 1.93. Besides, the inhibition at 500 µM came out at 55.8 ± 0.77% in data set [2] (500 μM) and 67.5 ± 2.66% in data set [3] (500 μM). For the same compound, the “Cytotoxicity study … % viability” value is given as 73.7% in data set [4] (150 μM), 80.2% in data set [4] (200 μM) and 77.8% in data set [4] (250 μM). For the same compound, the “LDH, Primary melanocytes” value is reported as 3.93 percentage of positive control in data set [5] (100 μM), 4.44 percentage of positive control in data set [5] (150 μM), 4.31 percentage of positive control in data set [5] (200 μM) and 15.01 percentage of positive control in data set [5] (250 μM).

The values above are taken from patent publication US20250263376A1, “(E)-N-CINNAMOYLAMINOALKANOLS WITH MELANOGENESIS INHIBITORY ACTIVITY” (Uniwersytet Jagiellonski, priority 2024, published 2025).
